Measured values reported in patent US20090203064A1, “METHOD AND DEVICE FOR MONITORING PLATELET FUNCTION” (PLACOR INC., priority 2002, published 2009).

Tested on: platelet function
Assay: Platelet plug formation time of arterial blood from pigs receiving platelet inhibitors (wire-in-tube device)
Type: in vivo
Experimental: Pigs were placed on various platelet inhibitors and then the platelet function of the pigs was monitored. Twenty-five pigs received 300 mg aspirin daily for seven days. Ten pigs received 300 mg ticlopidine (an ADP inhibitor) daily. Ten pigs received a combination of 300 mg aspirin and 300 mg ticlopidine daily. Twenty microliters of blood were drawn into the lumen of the tube at a rate of 1.0 microliter per second. The wire was 0.016 inches in diameter and the inner diameter of the tube was 0.034 inches in diameter. Blood (20 μl) was delivered via a three-way flow divider (a Touhy-Borst Connector) into a TEFLON tube 2 inches long with a stainless steel wire […] in diameter inserted through the tube and extending about three-fourths of the length of the tube. The wire was held in place at the end of the tube. The tube was coupled to a Hamilton syringe pump and to a HP blood pressure transducer for measuring the pressure in the tube. The platelet plug formation time was determined as damping of the blood pressure signal.

## CC(=O)Oc1ccccc1C(=O)O [aspirin]
300 mg aspirin daily, after 3 days
  Mean platelet plug time: 3.9 (± 0.25) minutes
300 mg aspirin daily, after 7 days
  Mean platelet plug time: 4.6 (± 0.42) minutes

## Clc1ccccc1CN1CCc2sccc2C1 [ticlopidine]
300 mg ticlopidine daily, after 3 days
  Mean platelet plug time: 5.67 min
300 mg ticlopidine daily, after 7 days
  Mean platelet plug time: 6.21 min
